The record followed here is publication PMC12207590, “Substrate Specificity of the Organic Cation Transporters MATE1 and MATE2K and Functional Overlap with OCT1 and OCT2” (Journal of Medicinal Chemistry, 2025).

One assay deals with MATE2K (Homo sapiens, UniProt Q86VL8). The assay is described as follows: Uptake ratio in MATE2K-overexpressing HEK293 cells vs empty vector (2.5 μM, 1 min, HPLC-MS/MS). It is filed as cell-based. To be noted: for MATE2K ratio in this study: Table S1.
In a further assay the target is T1, MATE1 (Homo sapiens, UniProt Q96FL8).
T1 sequence (Q96FL8 1-570): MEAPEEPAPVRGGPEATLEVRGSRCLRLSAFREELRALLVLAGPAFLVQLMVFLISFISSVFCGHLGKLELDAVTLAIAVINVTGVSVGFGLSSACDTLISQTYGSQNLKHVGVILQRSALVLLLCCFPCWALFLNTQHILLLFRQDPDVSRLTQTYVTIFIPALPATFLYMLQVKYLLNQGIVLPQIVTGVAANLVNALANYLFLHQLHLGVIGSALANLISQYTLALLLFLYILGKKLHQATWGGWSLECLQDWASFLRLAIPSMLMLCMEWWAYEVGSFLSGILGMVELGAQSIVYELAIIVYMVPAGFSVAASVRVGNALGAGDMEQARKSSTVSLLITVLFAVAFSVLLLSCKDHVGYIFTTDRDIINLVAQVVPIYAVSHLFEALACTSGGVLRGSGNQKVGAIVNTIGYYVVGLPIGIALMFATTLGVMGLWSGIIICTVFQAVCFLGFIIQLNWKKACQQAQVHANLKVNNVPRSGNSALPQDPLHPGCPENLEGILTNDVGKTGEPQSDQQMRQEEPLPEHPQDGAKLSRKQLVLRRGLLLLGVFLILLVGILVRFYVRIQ
The assay is described as follows: Uptake ratio in MATE1-overexpressing HEK293 cells vs empty vector (2.5 μM, 1 min, HPLC-MS/MS). Format: cell-based. As to conditions: for MATE1 ratio in this study: Table S1.

Setting [1] is: fold uptake over empty vector, 2.5 μM, 1 min.

Each structure is given as a SMILES string. Like-named read-outs stand apart in the source and are kept apart here.

Chain of MATE2K (Q86VL8 1-566 isoform Q86VL8-3): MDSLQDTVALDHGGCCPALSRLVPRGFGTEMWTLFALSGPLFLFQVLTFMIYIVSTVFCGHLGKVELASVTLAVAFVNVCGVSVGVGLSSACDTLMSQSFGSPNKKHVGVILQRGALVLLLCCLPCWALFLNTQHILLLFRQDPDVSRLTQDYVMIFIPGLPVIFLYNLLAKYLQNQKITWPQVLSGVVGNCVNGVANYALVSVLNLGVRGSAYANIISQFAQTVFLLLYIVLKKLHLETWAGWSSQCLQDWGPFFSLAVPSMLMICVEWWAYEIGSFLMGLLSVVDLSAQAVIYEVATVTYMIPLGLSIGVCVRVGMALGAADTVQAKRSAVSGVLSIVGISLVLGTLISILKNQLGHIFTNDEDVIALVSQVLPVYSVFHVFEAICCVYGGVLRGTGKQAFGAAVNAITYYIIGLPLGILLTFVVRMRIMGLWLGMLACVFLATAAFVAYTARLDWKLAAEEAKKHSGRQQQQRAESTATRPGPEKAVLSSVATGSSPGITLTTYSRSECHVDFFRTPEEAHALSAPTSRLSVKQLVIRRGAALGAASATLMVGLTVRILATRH

Turning to `CNCCCC12CCC(c3ccccc31)c1ccccc12` [Maprotiline], the MATE2K ratio on MATE2K (setting [1]) came to 1.04. Also, on MATE1 (setting [1]), the MATE1 ratio was 1.17.
Turning to `O=C1CCC[C@@H]2[C@H]3CCCN4CCC[C@@H](CN12)[C@@H]34` [Matrine], the MATE2K ratio at MATE2K is 1.27. Also, the MATE1 ratio on MATE1 worked out at 1.03.
With `CNC1(C)C2CCC(C2)C1(C)C` (stereo not shown) [Mecamylamine], the MATE2K ratio on MATE2K (setting [1]) was 1.05. In addition, the MATE1 ratio on MATE1 (setting [1]) is on record as 1.20.
The like results for `C[N+]1(C)CCCC(OC(=O)C(O)(c2ccccc2)c2ccccc2)C1.[Br-]` (stereo not shown) [Mepenzolate] were, in that order, 1.72 and 23.89.
For `C[C@](N)(Cc1ccc(O)c(O)c1)C(=O)O` [Methyldopa], the MATE2K ratio on MATE2K (setting [1]) worked out at 1.15. Further, at MATE1 (setting [1]), the MATE1 ratio is 1.04.
On to `COC(=O)[C@@H]1[C@H]2CC[C@@H](C[C@@H]1O)N2C` [Methylecgonine], for which the MATE2K ratio at MATE2K is recorded as 1.36. Further, the MATE1 ratio on MATE1 worked out at 1.54.
For `CN(C)c1ccc2nc3ccc(=[N+](C)C)cc-3sc2c1` [Methylene blue] the same measures were 1.55 and 2.36.
Regarding `CCNC(C)Cc1ccc2c(c1)OCO2` (stereo not shown) [Methylenedioxyethamphetamine], the MATE2K ratio on MATE2K amounted to 1.39. The MATE1 ratio on MATE1 turned out to be 1.07.
Take `CNC(=O)c1cccnc1` [Methylnicotinamide, N-Methylnicotinamide]: the “MATE2K ratio in this study” value on MATE2K (2.5 μM, 1 min) was 5.40. For the same molecule, the MATE2K ratio on MATE2K (setting [1]) was 5.40. The “MATE1 ratio in this study” value at MATE1 (2.5 μM, 1 min) was 33.89. In addition, the MATE1 ratio at MATE1 (setting [1]) amounted to 33.89.
As to `CC(=O)Oc1c(C)cc(OCC(O)CNC(C)C)c(C)c1C` (stereo not shown) [Metipranolol], the MATE2K ratio at MATE2K (setting [1]) is recorded as 1.17. The MATE1 ratio at MATE1 (setting [1]) was determined as 1.21.
The like results for `Clc1ccc(COC(Cn2ccnc2)c2ccc(Cl)cc2Cl)c(Cl)c1` (stereo not shown) [Miconazole] were, in that order, 1.50 and 1.33.
For `COc1nc(C)nc(Cl)c1N=C1NCCN1` [Moxonidine] the same measures were 1.78 and 2.02.
For `CC(=O)N[C@@H](CS)C(=O)O` [N-Acetyl-L-cysteine] the same measures were 0.95 and 1.02.
Turning to `CNCCCC1(c2ccc(F)cc2)OCc2cc(C#N)ccc21` (stereo not shown) [N-Desmethylcitalopram], the MATE2K ratio at MATE2K is given as 1.09. Besides, on MATE1, the MATE1 ratio came out at 1.09.
Turning to `CNCc1ccc(CSCCN/C(=C/[N+](=O)[O-])NC)o1` [N-Desmethylranitidine], the MATE2K ratio at MATE2K (setting [1]) amounted to 14.02. Further, the MATE1 ratio at MATE1 (setting [1]) is 23.54.
The like results for `CNCCc1ccccc1` [N-Methyl-2-phenylethylamine] were, in that order, 1.50 and 1.27.
On to `CNCCc1ccc(O)cc1` [N-Methyl-p-Tyramine], for which, on MATE2K, the MATE2K ratio came to 1.39. At MATE1, the MATE1 ratio is recorded as 3.11.
The like results for `CNCCc1c[nH]c2ccc(O)cc12` [N-Methylserotonin] were, in that order, 8.85 and 26.34.
On to `CN(C)C(N)=NCCC[C@H](N)C(=O)O` [NN-Dimethylarginine], for which the MATE2K ratio on MATE2K (setting [1]) is listed as 0.93. For the same molecule, the MATE1 ratio at MATE1 (setting [1]) is reported as 0.97.
Regarding `CC(C)(C)NCC(O)COc1cccc2c1CC(O)C(O)C2` (stereo not shown) [Nadolol], the “MATE2K ratio in this study” value on MATE2K (2.5 μM, 1 min) worked out at 10.12. Moreover, at MATE2K (setting [1]), the MATE2K ratio stood at 10.12. The “MATE1 ratio in this study” value at MATE1 (2.5 μM, 1 min) was 9.41. For the same molecule, the MATE1 ratio on MATE1 (setting [1]) was found to be 9.41.
Take `CNS(=O)(=O)CCc1ccc2[nH]cc(C3CCN(C)CC3)c2c1` [Naratriptan]: on MATE2K (setting [1]), the MATE2K ratio worked out at 8.34. In addition, on MATE1 (setting [1]), the MATE1 ratio worked out at 10.81.
The like results for `OC(CNCC(O)C1CCc2cc(F)ccc2O1)C1CCc2cc(F)ccc2O1` (stereo not shown) [Nebivolol] were, in that order, 1.45 and 1.41.
`CCc1nn(CCCN2CCN(c3cccc(Cl)c3)CC2)c(=O)n1CCOc1ccccc1` [Nefazodone]: the MATE2K ratio on MATE2K (setting [1]) came out at 1.24. Besides, the MATE1 ratio at MATE1 (setting [1]) amounted to 1.34.
The like results for `O=C(O)c1cccnc1` [Niacin] were, in that order, 0.90 and 1.06.
For the molecule `CNC(=C[N+](=O)[O-])NCCSCc1csc(CN(C)C)n1` [Nizatidine], the MATE2K ratio at MATE2K (setting [1]) amounted to 10.42. Besides, the MATE1 ratio at MATE1 (setting [1]) worked out at 11.88.
Turning to `CC(N)Cc1cccc(C(F)(F)F)c1` (stereo not drawn) [Norfenfluramine (+), Norfenfluramine], on MATE2K, the MATE2K ratio was 1.45. Besides, the MATE1 ratio on MATE1 is recorded as 1.22.
With `NCC(O)c1cccc(O)c1` (stereo not shown) [Norphenylephrine], the MATE2K ratio at MATE2K (setting [1]) was found to be 1.22. The MATE1 ratio at MATE1 (setting [1]) worked out at 26.13.
Turning to `C[C@@H]1Cc2c(Cl)cc(C(=O)N[C@@H](Cc3ccccc3)C(=O)O)c(O)c2C(=O)O1` [Ochratoxin A], on MATE2K, the MATE2K ratio was 1.28. Further, on MATE1, the MATE1 ratio amounted to 3.12 and the “substrate of MATE1” value was “substrates of MATE1”.
With `NCC(O)c1ccc(O)cc1` (stereo not shown) [Octopamine], on MATE2K (setting [1]), the MATE2K ratio came to 1.43. Moreover, on MATE1 (setting [1]), the MATE1 ratio is listed as 20.87.
The like results for `COc1ccc(CC(C)(C)NC[C@H](O)c2cc(O)cc3c2OCC(=O)N3)cc1` [Olodaterol] were, in that order, 6.19 and 3.34.
The like results for `CCOC(=O)C1=C[C@@H](OC(CC)CC)[C@H](NC(C)=O)[C@@H](N)C1` [Oseltamivir] were, in that order, 1.04 and 1.18.
The like results for `C=CCOc1ccccc1OCC(O)CNC(C)C` (stereo not shown) [Oxprenolol] were, in that order, 1.20 and 1.05.
Turning to `Cc1cc(C(C)(C)C)c(O)c(C)c1CC1=NCCN1` [Oxymetazoline], the MATE2K ratio on MATE2K (setting [1]) came out at 2.29. The MATE1 ratio on MATE1 (setting [1]) was determined as 5.22.
On to `CC[N+](C)(CC)CCOC(=O)C(O)(c1ccccc1)C1CCCCC1` (stereo not shown) [Oxyphenonium], for which the MATE2K ratio on MATE2K (setting [1]) is reported as 2.04. The MATE1 ratio at MATE1 (setting [1]) is on record as 9.89.
For `CC(C)(CO)[C@@H](O)C(=O)NCCC(=O)O` [Pantothenic acid] the same measures were 1.71 and 1.48.
On to `CC(=O)Nc1ccc(O)cc1` [Paracetamol], for which, at MATE2K (setting [1]), the MATE2K ratio is 0.99. Moreover, at MATE1 (setting [1]), the MATE1 ratio amounted to 1.00.
The like results for `OCCN1CCN(CCCN2c3ccccc3Sc3ccc(Cl)cc32)CC1` [Perphenazine] were, in that order, 0.94 and 1.09.
The like results for `NNCCc1ccccc1` [Phenelzine] were, in that order, 1.91 and 1.58.
The like results for `N[C@@H](Cc1ccccc1)C(=O)O` [Phenylalanine] were, in that order, 1.01 and 0.66.
In the case of `CNC[C@H](O)c1cccc(O)c1` [Phenylephrine (L), Phenylephrine], the MATE2K ratio at MATE2K (setting [1]) is 2.15. For the same molecule, on MATE1 (setting [1]), the MATE1 ratio is reported as 18.71.
For `CNC[C@H](O)c1cccc(O)c1` [Phenylephrine (S), Phenylephrine] the same measures were 1.44 and 12.74.
The like results for `CC[C@@H]1C(=O)OC[C@@H]1Cc1cncn1C` [Pilocarpine] were, in that order, 1.39 and 1.39.
For `O=c1[nH]c2ccccc2n1C1CCN(CCCC(c2ccc(F)cc2)c2ccc(F)cc2)CC1` [Pimozide] the same measures were 0.76 and 0.98.
